Columns and labels:
[1] = Viability of non-tumor fibroblast cell line; type: cell-based; settings: human, IMR90 non-tumor fibroblasts; @5 µM
Protocol: (§1) The test compound was diluted in PBS.
(§2) Viability (%) tum orsphere form ation (%)

IMR90 fibroblasts = test: Viability of non-tumor fibroblast cell line; type: cell-based; settings: IMR90 fibroblasts, 5 μM
Protocol: as §1, §2

[2] = tested on: primary CD34+ cells from healthy donors; test: CFU-E colony-forming unit assay, healthy donors; type: cell-based; settings: Homo sapiens
Protocol: Considering the inhibitory capacity of UCM-13369 on AML cell lines (shown in Figure 3A), the therapeutic potential was assessed in primary CD34+ cells from AML patients. Two ex vivo models were used from AML patients and healthy donors: CD34+ liquid HSC (hematopoietic stem cell) culture as a short-term model and CFU-E (colony-forming unit–erythroid) as a midterm model.
The test compound was diluted in PBS. […]
Primary cells. 1x10^6/mL total mononuclear bone marrow cells (as source of CD34+ HSCs) of healthy donors and AML patients were used. They were cultured using Stem SpanTM supplement with pencillin/streptomycin (500 U/ml), TPO (10 µg/mL), SCF (10 µg/mL), FLT3 (10 µg/mL), IL-6 (10 µg/mL) and IL-3 (10 µg/mL). After 24 h fresh medium was added. After 72 h in maintenance cells were ready to start the assays. All cells wer e maintained at 37 °C in a humidified incubator in an atmosphere of 5% CO2.
(§3) Colonospheres, mamospheres and colony formation unit assays. 30.000 cells per well of MCF-7 cells (mamos pheres), HCT-116 cells (colonospheres) and CD34+ cells from patients (colony formation units) were seeded in serum free non- adherent medium or […]
(§4) MethoCult (Stem Cell). […]

NPM1 C-end WT = target: T1, NPM1 C-end WT (Homo sapiens, UniProt P06748); test: Isothermal titration calorimetry, NPM1 C-end WT; type: binding; settings: ITC, 25 °C
T1 construct: the C-end domain (residues 225- 294); 6xHis (N); made in house; host or cells: E. coli BL21(DE3)
T1 sequence (P06748 225-294): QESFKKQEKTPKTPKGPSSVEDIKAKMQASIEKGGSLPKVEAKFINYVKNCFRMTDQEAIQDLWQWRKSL
From the text: To confirm a direct interaction of UCM-13369 with NPM1 and to address which domain of the protein would be responsible for binding the compound, pure protein samples of the pentameric N-end domain of NPM1, along with the C-terminal DNA-binding domains of WT and mutant NPM1 C+, were used in calorimetry assays. […] This is indicative of a lower diversity in the chemical environment of amide protons consistent with the previously reported protein unfolding.[29] […] On the other hand, the pentameric construct of the NPM1 N-end, which lacks the AML-related region, yielded a much lower binding affinity (KD ca. 100 μM range, Figure 3D).
ITC experiments were performed in a Nano ITC Low Volume (TA Instruments) at 25 °C. […]
The purity of the protein samples was checked by SDS–PAGE analysis (Figure S3) and protein quantification was performed using the Bradford protein assay.5 NPM molar concentration was expressed as the pentameric form for NPM1 WT N-end and as a monomer for NPM1 C-end WT and mutant. […]
After extraction with acetonitrile and acidification, samples were desalted and concentrated with C18 tips. Mass spectra were recorded in a Hybrid Quadrupole-Orbitrap™ Mass Spectrometer (Thermo Scientific, Waltham, Massachusetts, USA)

[3] = tested on: MCF-7-derived mamospheres; test: Formation of MCF-7-derived mamospheres (CSC tumorspheres); type: cell-based
Protocol: (BD Biosciences, Franklin Lakes, NJ, USA). All cells were maintained at 37 °C in a humidified incubator in an atmosphere of 5% CO2, and passaged every 2–3 days.
Additionally, they were cultured using RPMI media (Gibco/Life Technologies; Grand […]
as §3, §4

Q: Which viability at 48 h, 5 µM [1] does the source give for `COc1ccc(C2Cc3[nH]c4ccccc4c3C(CCNCC3CC3)C2N)cc1` (stereo not drawn) [4b, 4-{2-[(Cyclopropylmethyl)amino]ethyl}-2-(4-methoxyphenyl)-2,3,4,9-tetrahydro-1H-carbazol-3-amine] here?
A: The viability at 48 h, 5 µM was 100%.

Q: What about the “Toxicity in nontumor cells (in words)” value (IMR90 fibroblasts) of the same compound?
A: The value was “not toxic”.

Q: And the IC50 [2]?
A: The IC50 was 1.73 µM.

Q: What about the Kd (NPM1 C-end WT) of the same compound?
A: The Kd was 37 µM.

Q: And the inhibition at 5 µM ([3]; Homo sapiens, MCF7, @5 µM (footnote d), read-out: Inhibition of tumorsphere formation (%) MCF-7)?
A: Its inhibition at 5 µM is 100%.

Q: And the “Formation of tumorspheres (in words)” value ([3]; MCF-7 mamospheres and HCT-116 colonospheres, noncytotoxic concentration)?
A: The value was “completely inhibit”.

— article PMC11134387, “Cancer-Stem-Cell Phenotype-Guided Discovery of a Microbiota-Inspired Synthetic Compound Targeting NPM1 for Leukemia” (JACS Au, 2024)
